These results are taken from patent US9018208B2, “Heterocycles as potassium channel modulators” (Icagen Inc., priority 2007, dated 2015).

Broadly, the EC50 is the concentration at which the effect is half-maximal.

The subject of one test is SH-SY5Y M-currents (KCNQ2, KCNQ3 and KCNQ5). Briefly: SH-SY5Y native cell line FLIPR assay (voltage-sensitive dye DiBAC). The format is cell-based, mouse neuroblastoma, rat glioma hybrid cell line. As to conditions: FLIPR assay, SH-SY5Y native cell line; Table 1; read-out: SH-SY5Y EC50. In a few lines: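 Response is peak DiBAC fluorescence change, normalised to the maximum from a positive control agent, sampled every 30 s over 25 min. Before compound addition, SH-SY5Y cells differentiated with PGE1 plus isomethylbutylxanthine were dye-loaded for 1 h in EBSS with […] DiBAC.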
With `CC(C)CC(=O)Nc1nc2ccc(C(F)(F)F)cn2c1CC(C)(C)C` [Compound 63, 3-methyl-N-(3-neopentyl-6-(trifluoromethyl)imidazo[1,2-a]pyridin-2-yl)butanamide], the EC50 lay within 500 to 3000 nM.
As to `CC(C)(C)CC(=O)Nc1nc2ccc(C(F)(F)F)cn2c1C1CCCCC1` [Compound 33, N-(3-cyclohexyl-6-(trifluoromethyl)imidazo[1,2-a]pyridin-2-yl)-3,3-dimethylbutanamide], the EC50 was under 500 nM.
For the compound `CC(CC(=O)Nc1nc2ccc(F)cn2c1Cc1ccc(C(F)(F)F)cc1)C(F)(F)F` (centres unmarked) [Compound 29, 4,4,4-trifluoro-N-(6-fluoro-3-(4-(trifluoromethyl)benzyl)imidazo[1,2-a]pyridin-2-yl)-3-methylbutanamide], the EC50 was under 500 nM.
For `O=C(Cc1ccc(F)cc1F)Nc1nc2ccc(C(F)(F)F)cn2c1C1CC1` [Compound 79, N-(3-cyclopropyl-6-(trifluoromethyl)imidazo[1,2-a]pyridin-2-yl)-2-(2,4-difluorophenyl)acetamide], the EC50 is 500 to 3000 nM.
On the same count and under the same terms, as for `CC(C)CCc1c(NC(=O)Cc2ccc(F)cc2)nc2ccc(C(F)(F)F)cn12` [Compound 39, 2-(4-fluorophenyl)-N-(3-isopentyl-6-(trifluoromethyl)imidazo[1,2-a]pyridin-2-yl)acetamide], the figure is under 500 nM.
Same read-out and setting: as for `CC(C)(C)CC(=O)Nc1nc2ccc(C(F)(F)F)cn2c1C1CCCC1` [Compound 48, N-(3-cyclopentyl-6-(trifluoromethyl)imidazo[1,2-a]pyridin-2-yl)-3,3-dimethylbutanamide], the figure is under 500 nM; as for `CC(C)(C)Cc1c(NC(=O)Cc2ccc(Cl)cc2)nc2ccc(C(F)(F)F)cn12` [Compound 27, 2-(4-chlorophenyl)-N-(3-neopentyl-6-(trifluoromethyl)imidazo[1,2-a]pyridin-2-yl)acetamide], under 500 nM.

The test is the same for the next values; noted with them: FLIPR assay, SH-SY5Y native cell line; Table 2; read-out: SH-SY5Y EC50.
In the case of “N-(6-fluoro-3-(3-(trifluoromethyl)phenyl)imidazo yl)cycloheptanecarboxamide [Compound 294]”, the EC50 is under 500 nM.
`CC(C)(C)CC(=O)Nc1nc2ccc(F)cn2c1-c1ccc(C(F)(F)F)c(F)c1` [Compound 199, N-(6-fluoro-3-(3-fluoro-4-(trifluoromethyl)phenyl)imidazo[1,2-a]pyridin-2-yl)-3,3-dimethylbutanamide]: the EC50 is under 500 nM.
As for `CC(C)(C)[C@H](O)C(=O)Nc1nc2ccc(F)cn2c1-c1ccc(C(F)(F)F)cc1` [Compound 341, (S)—N-(6-fluoro-3-(4-(trifluoromethyl)phenyl)imidazo[1,2-a]pyridin-2-yl)-2-hydroxy-3,3-dimethylbutanamide], the EC50 was in the range of 500 to 3000 nM.
Take `COc1ccn2c(-c3ccc(C(F)(F)F)cc3)c(NC(=O)CC(C)(C)C)nc2c1` [Compound 245, N-(7-methoxy-3-(4-(trifluoromethyl)phenyl)imidazo[1,2-a]pyridin-2-yl)-3,3-dimethylbutanamide]: the EC50 was in the range of 500 to 3000 nM.
Same read-out and setting: as for `CC(C)(C)CC(=O)Nc1nc2ccc(F)cn2c1-c1ccc(C(C)(C)C#N)cc1` [Compound 175, N-(3-(4-(2-cyanopropan-2-yl)phenyl)-6-fluoroimidazo[1,2-a]pyridin-2-yl)-3,3-dimethylbutanamide], the figure is 500 to 3000 nM; as for `O=C(Cc1ccc(F)cc1)Nc1nc2cc(Cl)c(Cl)cn2c1-c1ccc(OC(F)(F)F)cc1` [Compound 217, N-(6,7-dichloro-3-(4-(trifluoromethoxy)phenyl)imidazo[1,2-a]pyridin-2-yl)-2-(4-fluorophenyl)acetamide], 500 to 3000 nM; as for `Cc1ccc(-c2c(NC(=O)CC(C)(C)C)nc3ccc(F)cn23)cc1F` [Compound 201, N-(6-fluoro-3-(3-fluoro-4-methylphenyl)imidazo[1,2-a]pyridin-2-yl)-3,3-dimethylbutanamide], under 500 nM.
Still for that read-out and setting: as for `O=C(Cc1cccc(Cl)c1)Nc1nc2ccc(F)cn2c1-c1cccc(Cl)c1` [Compound 300, 2-(3-chlorophenyl)-N-(3-(3-chlorophenyl)-6-fluoroimidazo[1,2-a]pyridin-2-yl)acetamide], the figure is under 500 nM; as for `O=C(CC1CCCC1)Nc1nc2ccc(F)cn2c1-c1ccc(F)cc1` [Compound 107, 2-cyclopentyl-N-(6-fluoro-3-(4-fluorophenyl)imidazo[1,2-a]pyridin-2-yl)acetamide], under 500 nM; as for `CC(C)(C)C(O)C(=O)Nc1nc2ccc(F)cn2c1-c1ccc(C(F)(F)F)cc1` (centres unmarked) [Compound 181, N-(6-fluoro-3-(4-(trifluoromethyl)phenyl)imidazo[1,2-a]pyridin-2-yl)-2-hydroxy-3,3-dimethylbutanamide], 500 to 3000 nM.
Take `COc1ccc2nc(NC(=O)CC(C)(C)C)c(-c3cccc(C(F)(F)F)c3)n2n1` [Compound 339, N-(6-methoxy-3-(3-(trifluoromethyl)phenyl)imidazo[1,2-b]pyridazin-2-yl)-3,3-dimethylbutanamide]: the EC50 fell in the range of 500 to 3000 nM.
As to `O=C(CC1CCCC1)Nc1nc2ccccn2c1-c1ccc(C(F)(F)F)cc1` [Compound 224, 2-cyclopentyl-N-(3-(4-(trifluoromethyl)phenyl)imidazo[1,2-a]pyridin-2-yl)acetamide], the EC50 is under 500 nM.
Same read-out and setting: the result for `O=C(Cc1ccc(F)cc1)Nc1nc2ccccn2c1-c1ccc(C(F)(F)F)cc1` [Compound 204, 2-(4-fluorophenyl)-N-(3-(4-(trifluoromethyl)phenyl)imidazo[1,2-a]pyridin-2-yl)acetamide] reads under 500 nM.
On to `CC(C)(C)CC(=O)Nc1nc2ccc(F)cn2c1-c1cc(F)cc(F)c1` [Compound 227, N-(3-(3,5-difluorophenyl)-6-fluoroimidazo[1,2-a]pyridin-2-yl)-3,3-dimethylbutanamide], for which the EC50 is under 500 nM.
For the compound `O=C(CC1CCCC1)Nc1nc2ccc(F)cn2c1-c1cccc(OC(F)(F)F)c1` [Compound 264, 2-cyclopentyl-N-(6-fluoro-3-(3-(trifluoromethoxy)phenyl)imidazo[1,2-a]pyridin-2-yl)acetamide], the EC50 is under 500 nM.
On the same count and under the same terms, as for `O=C(Cc1ccc(F)cc1Cl)Nc1nc2ccc(F)cn2c1-c1ccc(F)cc1` [Compound 140, 2-(2-chloro-4-fluorophenyl)-N-(6-fluoro-3-(4-fluorophenyl)imidazo[1,2-a]pyridin-2-yl)acetamide], the figure is 3000 to 10000 nM; as for `Cc1ccc2nc(NC(=O)Cc3ccc(F)cc3)c(-c3cccc(C(F)(F)F)c3)n2n1` [Compound 309, 2-(4-fluorophenyl)-N-(6-methyl-3-(3-(trifluoromethyl)phenyl)imidazo[1,2-b]pyridazin-2-yl)acetamide], under 500 nM.
With `CC(C(=O)Nc1nc2ccc(F)cn2c1-c1ccc(F)cc1)c1ccccc1` (centres unmarked) [Compound 109, N-(6-fluoro-3-(4-fluorophenyl)imidazo[1,2-a]pyridin-2-yl)-2-phenylpropanamide], the EC50 was 500 to 3000 nM.
As to `O=C(CC1CCC1)Nc1nc2ccc(F)cn2c1-c1ccc(OC(F)(F)F)cc1` [Compound 194, 2-cyclobutyl-N-(6-fluoro-3-(4-(trifluoromethoxy)phenyl)imidazo[1,2-a]pyridin-2-yl)acetamide], the EC50 is under 500 nM.
`O=C(Nc1nc2ccc(F)cn2c1-c1ccc(OC(F)(F)F)cc1)C1CCC(F)(F)CC1` [Compound 326, 4,4-difluoro-N-(6-fluoro-3-(4-(trifluoromethoxy)phenyl)imidazo[1,2-a]pyridin-2-yl)cyclohexanecarboxamide]: the EC50 was under 500 nM.
The same measure, in the same setting: as for `O=C(Cc1cc(F)cc(F)c1)Nc1nc2ccc(F)cn2c1-c1ccc(OC(F)(F)F)cc1` [Compound 242, 2-(3,5-difluorophenyl)-N-(6-fluoro-3-(4-(trifluoromethoxy)phenyl)imidazo[1,2-a]pyridin-2-yl)acetamide], the figure is under 500 nM; as for `CC(CC(=O)Nc1nc2ccc(F)cn2c1-c1cccc(Cl)c1)C(F)(F)F` (centres unmarked) [Compound 315, N-(3-(3-chlorophenyl)-6-fluoroimidazo[1,2-a]pyridin-2-yl)-4,4,4-trifluoro-3-methylbutanamide], 500 to 3000 nM.

Staying with this test, now noted: SH-SY5Y native cell line, FLIPR assay (Table 3); read-out: SH-SY5Y EC50.
Regarding `CC(CC(=O)Nc1nc2ccc(C(F)(F)F)cn2c1-c1cc(C(F)(F)F)ccn1)C(F)(F)F` (centres unmarked) [Compound 399, 4,4,4-trifluoro-3-methyl-N-(6-(trifluoromethyl)-3-(4-(trifluoromethyl)pyridin-2-yl)imidazo[1,2-a]pyridin-2-yl)butanamide], the EC50 lay within 500 to 3000 nM.
`CC(C)(C)CC(=O)Nc1nc2ccccn2c1-c1nccs1` [Compound 406, 3,3-dimethyl-N-(3-(thiazol-2-yl)imidazo[1,2-a]pyridin-2-yl)butanamide]: the EC50 lay within 500 to 3000 nM.
With `Cc1ccc2nc(NC(=O)CC(C)C(F)(F)F)c(-c3cc(C(F)(F)F)ccn3)n2n1` (centres unmarked) [Compound 396, 4,4,4-trifluoro-3-methyl-N-(6-methyl-3-(4-(trifluoromethyl)pyridin-2-yl)imidazo[1,2-b]pyridazin-2-yl)butanamide], the EC50 lay within 3000 to 10000 nM.
For the compound `CC(C)(C)CC(=O)Nc1nc2ccc(F)cn2c1-c1nccc(C(F)(F)F)n1` [Compound 377, N-(6-fluoro-3-(4-(trifluoromethyl)pyrimidin-2-yl)imidazo[1,2-a]pyridin-2-yl)-3,3-dimethylbutanamide], the EC50 lay within 3000 to 10000 nM.
In the case of `O=C(Nc1nc2ccc(F)cn2c1-c1cc(C(F)(F)F)ccn1)C1CCC(F)(F)CC1` [Compound 402, 4,4-difluoro-N-(6-fluoro-3-(4-(trifluoromethyl)pyridin-2-yl)imidazo[1,2-a]pyridin-2-yl)cyclohexanecarboxamide], the EC50 was under 500 nM.
As to `CC(CC(=O)Nc1nc2ccccn2c1-c1cc(C(F)(F)F)ccn1)C(F)(F)F` (centres unmarked) [Compound 405, 4,4,4-trifluoro-3-methyl-N-(3-(4-(trifluoromethyl)pyridin-2-yl)imidazo[1,2-a]pyridin-2-yl)butanamide], the EC50 fell in the range of 500 to 3000 nM.
